Test results as given in patent US6673937B2, “Syntheses and methods of use of new antimitotic agents” (The University of Pittsburgh, priority 2000, dated 2004).
Read-outs that look alike come from different tables or passages of the source.

Columns and labels:
[1] = tested on: MCF-7 cells; experiment: Antiproliferative assay, MCF-7 cells; type: cell-based; conditions: read-out: MCF-7 50% cell growth inhibition
Procedure: Two widely used human breast cancer cell lines were evaluated for sensitivity to the cytotoxic effects of the naphthoquinone spiroketals. MCF-7 cells were originally derived from an adenocarcinoma of the breast and retain several characteristics of differentiated mamnmary epithelium including the ability to process estradiol via cytoplasmic estrogen receptors. MCF-7 cells express the tumor suppressor gene product p53, which is required for the programmed cell death or apoptosis caused by many agents. (Foster, B. A.; Coffey, H. A.; Morin, M. J.; Rastinejad, F. Science 1999, 286, 2507).
The proliferation of MCF-7, MDA-MB-231 and SV40 transformed mouse embryonic fibroblasts was measured by a previously described colorimetric assay (Wipf P, Jung J-K, Rodriguez S, Lazo JS Synthesis and biological evaluation of Deoxypreussomerin A and Palmarumycin CP 1 and related naphthoquinone spiroketals. Tetrahedron 57:283-296, 2001 and Vogt A, Rice RL, Settineri CE, Yokokawa F, Yokokawa S, Wipf P and Lazo JS (1998) Disruption of insulin-like growth factor-I signaling and down-regulation of Cdc2 by SC-ααδ9, a novel small molecule antisignaling agent identified in a targeted array library. J Pharmacol Exptl Therap 287:806-813.). Briefly, the inventors seeded 4,000-6,000 cells per well in microtiter plates. Cells were allowed to attach overnight and treated with vehicle or compounds for 72 h, after which the medium was replaced with serum free medium containing 0.1% 3-[4,5-dimethylthiazol-2-yl]-2,5-diphenyl tetrazolium bromide. Plates were incubated for 3 hours in the dark and total cell number was determined by spectrophotometrically at 540 nm as previously described (Vogt A, Rice RL, Settineri CE, Yokokawa F, Yokokawa S, Wipf P and Lazo JS (1998) Disruption of insulin-like growth factor-1 signaling and down-regulation of Cdc2 by SC-ααδ9, a novel small molecule antisignaling agent identified in a targeted array library. J Pharmacol Exptl Therap 287:806-813.). […] Cells were maintained in RPMI 1640 medium containing 10% fetal bovine serum and the paclitaxel-resistant cells also contained 17 nM paclitaxel and 10 μM verapamil. Cells were plated (2,000/well) in 96-well plates and allowed to attach and grow for 72 hours (paclitaxel and verapamil were removed from resistant cell medium two weeks prior to this plating). They were then treated with 0.5% DMSO vehicle control or 0.08-10 μM compound. The number of cells was determined spectrophotometrically at 490 nm minus absorbance at 630 nm after exposure to 3-(4,5-dimethylthiazol-2-yl)-5-(3-carboxymethoxyphenyl)-2-(4-sulfophenyl)-2H-tetrazolium and N-methyldibenzopyurazine methyl sulfate. […]

[2] = biological target: T1, TrxR (Homo sapiens, UniProt Q16881); experiment: Thioredoxin reductase (TrxR) DTNB reduction assay; type: biochemical; conditions: calculated from 5 concentrations (0.1 to 50 μM)
T1 construct: Thioredoxin reductase was purified from human placenta as previously described; from tissue; host or cells: human placenta
T1 sequence (Q16881 1-499 isoform Q16881-5): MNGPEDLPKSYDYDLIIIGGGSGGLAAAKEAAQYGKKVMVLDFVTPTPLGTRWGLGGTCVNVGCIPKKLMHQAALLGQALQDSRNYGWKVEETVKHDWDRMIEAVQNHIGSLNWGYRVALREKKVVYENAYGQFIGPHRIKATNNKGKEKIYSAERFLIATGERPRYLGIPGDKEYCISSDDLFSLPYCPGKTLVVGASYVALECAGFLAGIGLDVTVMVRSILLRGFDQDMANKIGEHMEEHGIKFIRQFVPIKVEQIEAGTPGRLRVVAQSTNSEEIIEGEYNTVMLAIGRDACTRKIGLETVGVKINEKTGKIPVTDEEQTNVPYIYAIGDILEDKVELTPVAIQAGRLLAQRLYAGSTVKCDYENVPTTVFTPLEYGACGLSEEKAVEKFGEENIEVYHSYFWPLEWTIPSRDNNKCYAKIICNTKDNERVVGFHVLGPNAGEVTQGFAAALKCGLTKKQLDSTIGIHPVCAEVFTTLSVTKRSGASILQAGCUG
Procedure: Thioredoxin reductase was purified from human placenta as previously described (Oblong, J.E.; Gasdaska, P.Y.; Sherrill, K.; Powis,G. Biochemistry 1993, 32, 7271) and recombinant human Trx-1 was prepared as previously described (Gasdaska, P.Y.; Oblong, J.E.; Cotgreave, I.A.; Powis,G. Biochem.Biophys.Acta 1994 ,1218 ,292). TrxR and Trx-1/TrxR activities were measured spectrophotometrically using previously published microtiter plate colorimetric assays, based on the increase in absorbance at 405 nm which occurs as dithionitrobenzoic acid (DTNB) is reduced by the enzyme-mediated transfer of reducing equivalents from NADPH (Gasdaska et al., Biochem.Biophys.Acta 1994 ,1218,292). Trx-1/TrxR-dependent insulin reducing activity was measured in an incubation with a final volume of 60 μL containing 100 mM HEPES buffer, pH 7.2,5 mM EDTA (HE buffer),1 mM NADPH, […],0.8 μM Trx-1 and 2.5 mg/mL bovine insulin. Incubations were for 30 min at 37 ° C. in flat-bottom 96-well microtiter plates. The reaction was stopped by the addition of 100 μL of 6 M guanidine-HC1, 50 mM Tris, pH 8.0, and 10 mM DTNB, and the absorbance measured to 405 nm. TrxR activity was measured in a final incubation volume of 60 μL containing HE buffer, 10 mM DTNB, 1.0 μM TrxR and 1 mM NADPH. Compounds were diluted in HE buffer and added to the wells as 20 μL aliquots, and TrxR was then added,also as 20 μL aliquots in HE buffer. To start the reaction NADPH and DTNB were added as a 20 μL aliquot in HE buffer and the plate was moved to the plate reader which had been preheated to 37 ° C. The optical density at 405 nm was measured every 10 s and initial reaction rates were measured.

## O=C1C=CC2(Oc3cccc4cccc(c34)O2)c2cccc(OCc3ccco3)c21 [SR-7, 8-(furan-2-ylmethoxy)-1-oxo-1,4-dihydronaphthalene-4-spiro-2′-naphto [1″,8″-de][1′,3′] dioxin]
[1]; 72 hours
  IC50: 1.1 µM
[1]; Homo sapiens, MCF7, 72 h
  IC50: 1 to 2 µM

## O=C1C=CC2(Oc3cccc4cccc(c34)O2)c2cccc(O)c21 [palmarumycin CP1, 8-hydroxy-1-oxo-1,4-dihydronaphthalene-4-spiro-2′-naphtho[1″,8″-de] [1′,3′] dioxin, reference compound]
[1]; 72 hours
  IC50: 1 µM
[1]; Homo sapiens, MCF7, 72 h
  IC50: 1 to 2 µM
[2]
  IC50: 12 µM

## COc1cccc2c1C(=O)C=CC21OCCCO1 [TH-223]
[1]; 72 hours
  IC50: 4.4 µM
[2]
  IC50: > 50 µM

## O=C1C=CC2(Oc3cccc4cccc(c34)O2)c2cccc(OCc3ccccn3)c21 [SR-11, 8-(pyridin-2-ylmethoxy)-1-oxo-1,4-dihydronaphthalene-4-spiro-2′-naphto [1″,8″-de][1′,3′] dioxin]
[1]; Homo sapiens, MCF7, 72 h
  IC50: 2 µM
[2]
  IC50: > 50 µM

## COc1cccc(COc2cccc3c2C(=O)C=CC32Oc3cccc4cccc(c34)O2)c1 [SR-5, 8-(3-methoxy-benzyloxy)-1-oxo-1,4-dihydronaphthalene-4-spiro-2′-naphto [1″,8″-de][1′,3′] dioxin]
[1]; Homo sapiens, MCF7, 72 h
  IC50: 2.3 µM

## O=C1C=CC2(Oc3cccc4cccc(c34)O2)c2cccc(OCCc3ccccc3)c21 [SR-6, 8-(2-phenyl-ethoxy)-1-oxo-1,4-dihydronaphthalene-4-spiro-2′-naphto [1″,8″-de][1′,3′] dioxin]
[1]; Homo sapiens, MCF7, 72 h
  IC50: 3.9 µM

## C/C=C/COc1cccc2c1C(=O)C=CC21Oc2cccc3cccc(c23)O1 [SR-2, (E)-8-(but-2-enyloxy)-1-oxo-1,4-dihydronaphthalene-4-spiro-2′-naphto [1″,8″-de][1′,3′]dioxin]
[1]; Homo sapiens, MCF7, 72 h
  IC50: 1.3 µM

## CC(C)=CCC/C(C)=C/COc1cccc2c1C(=O)C=CC21Oc2cccc3cccc(c23)O1 [SR-9, (E,E)-8-(3,7-diemthyl-octa-2,6-dienyloxy)-1-oxo-1,4-dihydronaphthalene-4-spiro-2′-naphtol [1″,8″-de][1′,3′] dioxin]
[1]; Homo sapiens, MCF7, 72 h
  IC50: 4.6 µM

## C=CCOc1cccc2c1C(=O)C=CC21Oc2cccc3cccc(c23)O1 [SR-14, 8-allyloxy-1-oxo-1,4-dihydronaphthalene-4-spiro-2′-naphto [1″,8″-de][1′,3′] dioxin]
[1]; Homo sapiens, MCF7, 72 h
  IC50: 2 µM
[2]
  IC50: > 50 µM

## O=C1C=CC2(Oc3cccc4cccc(c34)O2)c2cccc(OCc3ccncc3)c21 [SR-13, 8-(pyridin-4-ylmethoxy)-1-oxo-1,4-dihydronaphthalene-4-spiro-2′-naphtol [1″,8″-de][1′,3′] dioxin]
[1]; Homo sapiens, MCF7, 72 h
  IC50: 8 µM
[2]
  IC50: > 50 µM

## O=C1C=CC2(OCCO2)c2cccc(O)c21 [TH-169]
[1]; Homo sapiens, MCF7, 72 h
  IC50: 4.2 µM
[2]
  IC50: 8.8 µM

## COc1ccc(COc2cccc3c2C(=O)C=CC32Oc3cccc4cccc(c34)O2)cc1 [TH-39, 8-(4-methoxy-benzyloxy)-1-oxo-1,4-dihydronaphthalene4-spiro-2-naphto [1,8-de][1, 3]dioxin]
[1]; Homo sapiens, MCF7, 72 h
  IC50: 0.7 µM
[2]
  IC50: > 50 µM

## O=C1C=CC2(Oc3cccc4cccc(c34)O2)c2cccc(OCc3cccnc3)c21 [SR-12, 8-(pyridin-3-ylmethoxy)-1-oxo-1,4-dihydronaphthalene-4-spiro-2′-naphto [1″,8″-de][1′,3′] dioxin]
[1]; Homo sapiens, MCF7, 72 h
  IC50: 1.5 µM
[2]
  IC50: > 50 µM

## O=C1C=CC2(Oc3cccc4cccc(c34)O2)c2cccc(OC/C=C/c3ccccc3)c21 [SR-1, (E)-8-(3-phenyl-allyloxy)-1-oxo-1,4-dihydronaphthalene-4-spiro-2′-naphto[1″, 8″-de] [1′,3′] dioxin]
[1]; Homo sapiens, MCF7, 72 h
  IC50: 7.9 µM

## CCCCCCOc1cccc2c1C(=O)C=CC21Oc2cccc3cccc(c23)O1 [SR-3, 8-hexyloxy-1-oxo-1,4-dihydronaphthalene-4-spiro-2′-naphto [1″,8″-de] [1′,3′] dioxin]
[1]; Homo sapiens, MCF7, 72 h
  IC50: 13.4 µM

## O=C1C=CC2(Oc3cccc4cccc(c34)O2)c2cccc(OCc3ccoc3)c21 [SR-10, 8-(furan-3-ylmethoxy)-1-oxo-1,4-dihydronaphthalene-4-spiro-2′-naphto [1′,8′-de][1′,3′] dioxin]
[1]; Homo sapiens, MCF7, 72 h
  IC50: 2 µM
[2]
  IC50: > 50 µM
